Assay results reported in PMC3517777, “Phase I study of TP300 in patients with advanced solid tumors with pharmacokinetic, pharmacogenetic and pharmacodynamic analyses” (BMC Cancer, 2012).
Read-outs that look alike come from different tables or passages of the source.

Legend:
[1] = test system: range of tumour types in vitro; set-up: method as in PMID 19495753; conditions: cited from earlier work
[2] = Single and repeat dose toxicity studies (preclinical); assay type: in vivo; conditions: most sensitive of the two species tested; equals 6 mg/m^2
Method: (§1) The starting dose of 1 mg/m^2 was derived from single and repeat dose toxicity studies and represented one sixth of 0.3 mg/kg (6 mg/m^2), a dose tolerated without evidence of serious, irreversible or life-threatening toxicity in the most sensitive of the two species tested. Doses were doubled in subsequent cohorts until grade ≥2 toxicity was observed, whereupon a modified Fibonacci dose escalation scheme was used. In each cohort the first patient was required to complete 1 cycle before subsequent patients were entered. Intra-patient dose-escalation was not allowed.

[3] = test system: peripheral blood mononuclear cells (PBMCs); experiment: Single cell gel electrophoresis (comet) assay of DNA strand breaks; assay type: in vivo, human; conditions: 1 hour post first dose, across all doses
Method: Analysis of the ability of TP300 to induce DNA strand breaks was performed on peripheral blood mononuclear cells (PBMCs), pre-dose, 1, 3 and 24 hours post cycle 1. A validated single cell gel electrophoresis (comet) assay was used to assess DNA single-strand breaks. An average of 50 PBMC cells/time-point were analysed and the tail moment (TM) calculated, as the product of the percentage of DNA in the comet tail and the distance between head and tail distributions; higher TM values reflect greater DNA strand breakage. Statistical analyses were not performed due to the limited number of subjects/samples per cohort.

[4] = Plasma and urine pharmacokinetics after TP300 infusion (LC-MS/MS, non-compartmental); assay type: in vivo, human; conditions: for concentration at 1 h: human, in vivo, read-out: Plasma TP300 concentration 1 h after administration, mean
Method: Venous blood (3 mL) was taken into sodium heparin tubes containing 30 μL of 46% citric acid, centrifuged 1500g at 4°C for 10 min and 1 mol/L hydrochloric acid was added (1:10) to plasma from each subject at 10 time points during cycle 1 (pre dose, then 1, 1.25, 1.5, 2, 3, 5, 8, 24, 48 hours after the start of administration) and stored at −70°C. Samples were processed by extraction of protein using addition of organic solvent containing internal standards and assayed by LC-MS/MS with a robust, sensitive and validated method for the simultaneous determination of a novel topoisomerase 1 inhibitor CH0793076 (TP3076), the prodrug CH4556300 (TP300), and the active metabolite CH0793011 (TP3011). All plasma had been acidified during collection to avoid the pH-based degradation of TP300 and to shift the equilibria of TP3076 and TP3011 between the lactone and carboxylate forms towards the lactone forms. After the plasma proteins were precipitated with methanol:acetonitrile:HCl 1M (50:50:1, v:v:v) containing stable isotopic internal standards, the analytes were trapped on an Xterra MS C18 column (10×2.1 mm i.d., 5 μm) and separated on a Gemini C18 column (50×2.0 mm i.d., 5 μm) using column-switching liquid chromatography. Electrospray ionization in the positive-ion mode and multiple reaction monitoring were used to quantify the analytes with transitions m/z 587.2>441.2 for TP300, 459.1>415.2 for 3076, and 475.1>361.1 for 3011. The inter- and intra-day precisions were below 12%, and the accuracy was between −16% and 16% at the lower limit of quantitation (LLOQ) and between −11% and 14% at the other quality controls. The LLOQs of TP300, TP3076, and TP3011 were 0.8, 0.04, and 0.04 ng/mL, respectively.
Pharmacokinetic parameters derived from plasma concentration-time data of TP3076 or TP3011 by non-compartmental methods using WinNonlin (version 5.1; Pharsight Corp), included maximal plasma concentration (Cmax) and time of Cmax (Tmax), apparent plasma elimination half-life (t1/2), and the area under the curve (AUC). The urinary excretion ratio (fe) of TP3076 and TP3011 was calculated from the urinary concentration and volume up to 48 hours after administration, and the administration dose. The linearity of Cmax and AUC was determined with linear regression, analysis of variance and power model analysis. The sum of the AUCs of TP3076 and TP3011 was plotted against percentage (%) fall in nadir neutrophil count to explore the relationship between exposure and myelosuppression as a measure of anti-proliferative effect and a sigmoid Emax model fitted to the data: […]

[5] = Phase I dose escalation of TP300: toxicity (CTCAE v3.0), DLT, MTD; assay type: in vivo, human
Method: TP300 was given as a 1-hour intravenous (i.v.) infusion, by peripheral venous catheter, every 3 weeks.
as §1
The MTD was the dose level below that at which ≥ 2 out of 3–6 patients experienced a DLT. Radiologic assessment of disease was performed every 2 cycles. Patients could remain on treatment if there was evidence of clinical benefit but were withdrawn from the study upon clinical or radiologic progression, unacceptable toxicity or withdrawal of consent.
Toxicity was assessed weekly and graded using the National Cancer Institute Common Toxicity Criteria (CTCAE) version 3.0. DLT was defined as the occurrence of any of the following adverse events: grade 4 thrombocytopenia; febrile neutropenia or grade 4 neutropenia > 5 days duration; grade 4 diarrhoea not reduced to grade 1 within 2 days of appropriate therapy; other gastro-intestinal toxicities (e.g. vomiting, nausea, stomatitis) ≥ grade 3 and not reduced to grade 1 within 2 days of appropriate therapy; any other non-haematologic toxicities ≥ grade 3 (excluding alopecia).

[6] = suspected treatment related adverse events within cycle 1, N = 32, all doses 1-12 mg/m^2

CCCCCN1C=Nc2cccc3nc4c(c1c23)Cn1c-4cc2c(c1=O)COC(=O)[C@@]2(CC)OC(=O)CN(C)C(=O)CN [TP300, glycine,glycyl-N-methyl-,(9S)-9-ethyl-9,10,13,15-tetrahydro-10,13-dioxo-1-pentyl-1H,12H-pyrano[3'',4'':6′,7′]indolizino[2′,1′:5,6]pyrido[4,3,2-de]quinazolin-9-yl ester, hydro-chloride]
activity across a range of tumour types in vitro [1]: activity at nanomolar concentrations | dose tolerated without evidence of serious, irreversible or life-threatening toxicity [2]: 0.3 mg/kg | increase of DNA strand breaks vs pre-treatment [3]: approximately 2 fold | mean tail moment (TM) ([3]; pre-treatment mean 0.69): 1.65 | measured plasma concentrations 1.5 h after dose ([4]; all doses, LLOQ of TP300 0.8 ng/mL): below the limit of the quantification | concentration at 1 h ([4]; TP300 2 mg/m^2): 3.48 ng/mL | concentration at 1 h ([4]; TP300 8 mg/m^2): 2.34 ng/mL | concentration at 1 h ([4]; TP300 10 mg/m^2): 7.37 ng/mL | concentration at 1 h ([4]; TP300 12 mg/m^2): 18.4 ng/mL | DLTs (patients with DLT / patients dosed) ([5]; 10 mg/m^2): 3/12 | DLTs (patients with DLT / patients dosed) ([5]; 12 mg/m^2): 2/4 | MTD (maximum tolerated dose) ([5]; 1-hour i.v. infusion 3-weekly, patients with advanced solid tumors): 10 mg/m^2 | worst grade of diarrhoea ([5]; 8 patients developed diarrhoea, all doses): ≤ 2 grade | time to diarrhoea after TP300 treatment, average ([5]; 8 patients with diarrhoea): 9.5 days | time to diarrhoea after TP300 treatment, range ([5]; 8 patients with diarrhoea): 1 to 27 days | cholinergic effects ([5]; 32 patients, all doses): no patient experienced cholinergic effects | patients discontinued due to toxicity ([5]; 32 patients, all doses): 4 patients | treatment-related deaths ([5]; 32 patients, all doses): no treatment-related deaths | recommended Phase II starting dose ([5]; cycle 1): 8 mg/m^2 | recommended Phase II dose on subsequent cycles ([5]; escalation if initial treatment is well tolerated): 10 mg/m^2 | Anaemia, All grade [5, 6]: 6 ( 19) No. (%) | Anaemia, Grade 3 [5, 6]: 2 ( 6) No. (%) | Back pain, All grade [5, 6]: 1 ( 3) No. (%) | Back pain, Grade 3 [5, 6]: 1 ( 3) No. (%) | Chills, All grade [5, 6]: 2 ( 6) No. (%) | Chills, Grade 3 [5, 6]: 1 ( 3) No. (%) | Diarrhea, All grade [5, 6]: 8 ( 25) No. (%) | Diarrhea, Grade 3 [5, 6]: 0 (0) No. (%) | Dyspnoea, All grade [5, 6]: 1 ( 3) No. (%) | Dyspnoea, Grade 3 [5, 6]: 1 ( 3) No. (%) | Febrile neutropenia, All grade [5, 6]: 2 ( 6) No. (%) | Febrile neutropenia, Grade 3 [5, 6]: 2 ( 6) No. (%) | Hepatorenal failure, All grade [5, 6]: 1 ( 3) No. (%) | Hepatorenal failure, Grade 3 [5, 6]: 1 ( 3) No. (%) | Lethargy, All grade [5, 6]: 12 ( 38) No. (%) | Lethargy, Grade 3 [5, 6]: 4 ( 13) No. (%) | Leukopenia, All grade [5, 6]: 3 ( 9) No. (%) | Leukopenia, Grade 3 [5, 6]: 3 ( 9) No. (%) | Nausea, All grade [5, 6]: 13 ( 41) No. (%) | Nausea, Grade 3 [5, 6]: 0 (0) No. (%) | Neutropenia, All grade [5, 6]: 6 ( 19) No. (%) | Neutropenia, Grade 3 [5, 6]: 6 ( 19) No. (%) | Neutropenic sepsis, All grade [5, 6]: 1 ( 3) No. (%) | Neutropenic sepsis, Grade 3 [5, 6]: 1 ( 3) No. (%) | Syncope, All grade [5, 6]: 1 ( 3) No. (%) | Syncope, Grade 3 [5, 6]: 1 ( 3) No. (%) | Thrombocytopenia, All grade [5, 6]: 3 ( 9) No. (%) | Thrombocytopenia, Grade 3 [5, 6]: 3 ( 9) No. (%) | Vomitting, All grade [5, 6]: 9 ( 28) No. (%) | Vomitting, Grade 3 [5, 6]: 0 (0) No. (%)
